Assay results from patent US20060019320A1, “Wnt mediated erbb signalling, compositions and uses related thereto” (priority 2002, published 2006).

How the values were obtained:
ERK1/2 = assay: phospho-ERK1/2 immunoblot (MAPK activity) in HC11 cells; assay type: cell-based, mouse; settings: for ability of the Wnt proteins to stimulate ERK1/2 activity: C-HC11 pretreated 1 hr with inhibitor, then Wnt CM for 10 minutes
From the text: The MAPK and PI3K pathways are major signaling cascades downstream of activated ErbB receptors (Olayioye et al., 2000). Antisera specific for the active, phosphorylated forms of ERK1/2 and PKB, the major kinases on the respective pathways, were used to probe for their activity. 50 micrograms of WCL were immunoblotted essentially as described above with the exception that a phospho-ERK1/2 antibody (commercially available, New England Biolabs) or a phosphoPKB antibody was used. Membranes were stripped and reprobed for ERK1/2 (anti-p44/42 ERK, New England Biolabs).
Briefly, conditioned media (CM) from Wnt-HC11 cells prepared as described in Example 1 was tested for its effect on ErbB1 and MAPK activity, essentially as described above. Treatment of C-HC11 cells for 10 min with Wnt1- and Wnt5a-CM stimulated phospho-ERK1/2 levels 5-6-fold, whereas CM from C-HC11 cells had no effect.
To rule out the potential involvement of ErbB1 ligands in mediating the effects of Wnt-containing CM, we used secreted Frizzled-related protein-1 (sFRP-1), which binds Wnt preventing it from binding Fz (Uren et al., 2000). CM from human embryonic kidney (HEK293) cells stably expressing the sFRP1 expression vector or control HEK 293 cells was premixed 1 hr with Wnt-containing CM (1:1) before adding to C-HC11 cultures for 10 min. Simultaneous addition of CM from sFRP1-producing 293 cells with Wnt-containing CM prevented Wnt1 and Wnt5a from increasing phospho-ERK1/2 levels, showing that sFRP1 blocks Wnt signalling through Fz to ErbB1. As a control, the cells were also treated for 10 minutes with EGF in the presence of sFRP1.
To test for a role of metalloproteinases in Wnt-expressing HC11 cells, two metalloproteinase inhibitors were used, namely phenanthroline (Calbiochem), a metal ion chelator, or CGS27023A, an enzymatic inhibitor (Wang et al., 1999). Cells were treated for 1 hour with phenathroline, CGS27023A, (both at 50μM) or DMSO carrier. ErbB1 was immunoprecipitated from 500 micrograms WCL and immunoblotted with a phosphotyrosine specific antibody, essentially as described above. Membranes were stripped and reprobed for ErbB1. ERK1/2 was probed from 50 micrograms of WCL, immunoblotted with a phospho-ERK1/2 antibody, essentially as described above. Membranes were stripped and reprobed for ERK1/2.
The metalloproteinase inhibitors were next tested in the presence of Wnt-containing CM. C-HC11 cultures were pretreated 1 hr with metalloproteinase inhibitors before treatment with CM from C- or Wnt-HC11 cells for 10 minutes. Phospho-ERK1/2 levels were determined as above. Phenanthroline and CGS 27023A each blocked the ability of the Wnt proteins to stimulate ERK1/2 activity in C-HC11 cells. Similar results were obtained with HC11 cells constitutively expressing the Wnt proteins. Thus, Wnt-mediated activation of ErbB1 and ERK is dependent on a metalloproteinase activity.

cyclin D1 = assay: Cyclin D1 immunoblot in HC11 cells; assay type: cell-based, mouse; settings: Wnt1- and Wnt5a-HC11 cells treated 6 hr
Procedure: Briefly, WCL was prepared from HC11, Wnt1- and Wnt5a-expressing HC11 cells and 50 μg immunoblotted essentially as described above using commercially available antibodies against cyclin D1 (NovaCastra) or cyclin D2 (SantaCruz). Both Wnt1- and Wnt5a-HC11 cells express higher levels of cyclin D1, in comparison to HC11 cells. In addition, Wnt1-HC11 cells but not C- or Wnt5a-HC11 cells express cyclin D2.
C-HC11 cells were also treated 6 hrs with CM from Wnt-HC11 cells. WCL were prepared and 50 μg was immunoblotted for Cyclin D1 or Cyclin D2. Similar to the results with the Wnt-HC11 cell lines, both Wnts (CM) stimulated Cyclin D1 expression, while only Wnt1 enhanced cyclin D2 levels.
To assess the contribution of Wnt-transactivated ErbB1 on cyclin D1 and D2 expression, C- and Wnt-HC11 cells were treated 6 hr with PKI166 or CGS27023A or EGF. […] In contrast, the ErbB1 inhibitor had no effect on cyclin D2 levels. […] Thus, cyclin D1 and cyclin D2 are differentially controlled. Both Wnt1 and Wnt5a transactivate ErbB1, which results in increased expression of cyclin D1; in contrast cyclinD2 is only elevated in Wnt1 expressing cells and this is independent of ErbB1 activity.

ErbB1 = target: T1, ErbB1 (Mus musculus, UniProt Q01279); assay: ErbB1 immunoprecipitation and phosphotyrosine immunoblot in HC11 cells; assay type: cell-based; settings: Wnt-HC11 cells, 5 microM for 1 hr
T1 construct: endogenous in cells; host or cells: HC11 mammary cells (C-HC11, Wnt1-HC11, Wnt5a-HC11)
T1 sequence (Q01279 25-1210): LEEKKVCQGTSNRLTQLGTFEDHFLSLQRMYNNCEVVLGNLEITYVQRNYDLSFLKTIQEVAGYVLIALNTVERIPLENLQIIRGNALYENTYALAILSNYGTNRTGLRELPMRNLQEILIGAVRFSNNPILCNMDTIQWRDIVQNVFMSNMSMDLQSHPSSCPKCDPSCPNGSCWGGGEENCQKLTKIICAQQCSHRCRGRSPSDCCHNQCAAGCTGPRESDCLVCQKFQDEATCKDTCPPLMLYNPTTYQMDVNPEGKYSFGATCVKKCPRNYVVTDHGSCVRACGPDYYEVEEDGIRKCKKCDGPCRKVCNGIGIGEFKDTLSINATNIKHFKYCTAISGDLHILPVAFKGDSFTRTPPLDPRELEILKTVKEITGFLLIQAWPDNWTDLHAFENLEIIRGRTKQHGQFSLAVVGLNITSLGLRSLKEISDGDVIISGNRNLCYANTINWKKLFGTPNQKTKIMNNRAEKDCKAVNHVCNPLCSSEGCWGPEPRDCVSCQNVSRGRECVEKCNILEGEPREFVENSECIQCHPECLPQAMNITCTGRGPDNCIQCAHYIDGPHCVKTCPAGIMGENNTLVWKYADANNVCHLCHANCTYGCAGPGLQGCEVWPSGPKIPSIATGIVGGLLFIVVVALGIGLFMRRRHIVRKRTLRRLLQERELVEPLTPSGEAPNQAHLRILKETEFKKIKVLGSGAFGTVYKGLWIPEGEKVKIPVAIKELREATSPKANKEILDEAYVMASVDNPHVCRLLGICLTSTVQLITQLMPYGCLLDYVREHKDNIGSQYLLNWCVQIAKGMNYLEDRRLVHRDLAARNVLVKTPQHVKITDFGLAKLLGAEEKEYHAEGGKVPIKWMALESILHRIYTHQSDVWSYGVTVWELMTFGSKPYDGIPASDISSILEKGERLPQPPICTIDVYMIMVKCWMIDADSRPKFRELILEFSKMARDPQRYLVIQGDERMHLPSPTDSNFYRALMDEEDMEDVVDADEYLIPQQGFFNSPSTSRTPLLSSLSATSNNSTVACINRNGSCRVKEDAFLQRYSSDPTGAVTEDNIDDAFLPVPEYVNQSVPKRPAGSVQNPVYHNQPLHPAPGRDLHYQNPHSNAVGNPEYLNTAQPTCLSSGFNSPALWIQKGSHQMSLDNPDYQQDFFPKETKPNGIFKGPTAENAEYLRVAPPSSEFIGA
Procedure: ErbB1 is transactivated by many classes of membrane proteins (Carpenter, 1999; Gschwind et al., 2001). However, Wnt/VFz-mediated activation of ErbB1 has not been reported previously. Since ErbB1 tyrosine phosphorylation is an essential step in ErbB1 activation, we examined whether Wnt can activate ErbB1, by immunoprecipitating the receptor form Wnt/HC11 cells and performing a Westem analysis with phosphotyrosine specific antiserum. For these experiments HC11 cells were grown over night in medium without EGF. As a control for ErbB1 activation, C-HC 11 and Wnt-HC11 cells were treated for 10 minutes with 100 ng/ml EGF. An ErbB1 selective kinase inhibitor PKI166 (Traxler et al., 2001) was also used in some experiments. For this, the cells were pretreated 1 hr with 5 microM PKI 166, or left untreated, before preparing WCLs, essentially as described in Example 1.
ErbB1 was immunoprecipitated from 500 micrograms WCL and immunoblotted with a phosphotyrosine specific antibody (anti-phosphotyrosine AG10, Upstate Biotechnology) essentially as described previously (Lane et al., 2000). Membranes were stripped by placing them in 2% SDS, 62.5 mM Tris pH 6.8, 100 mM beta-mercaptoethanol at 60° C. for 30 min. Stripped membranes were reprobed for ErbB1 using a commercially available antibody (antibody 1005,Santa Cruz Biotechnology). […]

cyclin D2 = assay: Cyclin D2 immunoblot in HC11 cells; assay type: cell-based, mouse; settings: Wnt-HC11 cells treated 6 hr
Procedure: Briefly, WCL was prepared from HC11, Wnt1- and Wnt5a-expressing HC11 cells and 50 μg immunoblotted essentially as described above using commercially available antibodies against cyclin D1 (NovaCastra) or cyclin D2 (SantaCruz). Both Wnt1- and Wnt5a-HC11 cells express higher levels of cyclin D1, in comparison to HC11 cells. In addition, Wnt1-HC11 cells but not C- or Wnt5a-HC11 cells express cyclin D2. C-HC11 cells were also treated 6 hrs with CM from Wnt-HC11 cells. WCL were prepared and 50 μg was immunoblotted for Cyclin D1 or Cyclin D2. Similar to the results with the Wnt-HC11 cell lines, both Wnts (CM) stimulated Cyclin D1 expression, while only Wnt1 enhanced cyclin D2 levels. To assess the contribution of Wnt-transactivated ErbB1 on cyclin D1 and D2 expression, C- and Wnt-HC11 cells were treated 6 hr with PKI166 or CGS27023A or EGF. […] In contrast, the ErbB1 inhibitor had no effect on cyclin D2 levels. […] Thus, cyclin D1 and cyclin D2 are differentially controlled. Both Wnt1 and Wnt5a transactivate ErbB1, which results in increased expression of cyclin D1; in contrast cyclinD2 is only elevated in Wnt1 expressing cells and this is independent of ErbB1 activity.

SMILES	ability of the Wnt proteins to stimulate ERK1/2 activity (ERK1/2)	cyclin D1 level (cyclin D1)	decrease of ErbB1's phosphotyrosine level (ErbB1)	ability of Wnt-containing CM to stimulate phospho-ERK1/2 levels (ERK1/2; C-HC11 cells pre-treated for 1 hour with inhibitor)	EGF induction of MAPK activity (ERK1/2; C-HC11 cells, pretreatment with inhibitor)	constitutive level of phospho-ERK1/2 (ERK1/2; Wnt-expressing HC11 cells)	cyclin D2 levels (cyclin D2)
c1cnc2c(c1)ccc1cccnc12 [Phenanthroline, phenanthroline]	blocked	–	–	–	–	–	–
COc1ccc(S(=O)(=O)N(Cc2cccnc2)[C@@H](C(=O)NO)C(C)C)cc1 [CGS27023A]	blocked	decreased expression	–	–	–	–	–
C[C@@H](Nc1ncnc2[nH]c(-c3ccc(O)cc3)cc12)c1ccccc1 [PKI166]	–	reduced cyclin D1 to the control level	approximately 50%	blocked	prevented	reduced the constitutive level of phospho-ERK1/2 to basal	no effect
